According to US20150064221A1, “COMPOUNDS HAVING IMMUNOMUDULATOR ACTIVITY” (priority 2012, published 2015):

Experiments:
[1] = Stability in human liver S9 fractions; type: in vitro ADME; settings: with phase 1 and 2 cofactors, read-out: t1/2 in human liver S9 fractions
Experimental: The highest plasma concentrations generally occurred in 1-2 hours. […] The highest level of inhibition was ˜35% for 2C19 at a 30 μM concentration. […] Lastly, VGX-1027 is stable in human liver S9 fractions (with phase 1 and 2 cofactors) with t1/2>90 minutes, which indicates a low likelihood of metabolism in the liver.

[2] = test system: undifferentiated CD4 T cells; assay: Proliferation of undifferentiated CD4 T cells; type: cell-based
Experimental: (A) Cell viability was measured via the MTT assay after 48 hours of treatment. (B) TNF-α levels were measured 48 hours post LPS (5 μg/ml) stimulation. (C) CD4 T cells were stimulated with either ConA (10 μg/ml) or anti-CD3/CD28 beads (10 μg/ml), and proliferation was measured via 3H-thymidine incorporation.

PBMCs = assay: Transcriptional profile analysis (microarray) of LPS-stimulated PBMCs; type: cell-based, human; parameters: mean/difference of means: scale not given here; settings: for mean/difference of means: VGX-treated vs LPS stimulated group
Experimental: Transcriptional profile analysis: PBMCs from three individual healthy donors, obtained from the University of Pennsylvania School of Medicine, Immunology Clinical Core. Cells (5×10̂6) were treated with either LPS (5 μg/ml), LPS (5 μg/ml)+VGX-1027 (10 uM) or PBS for 48 hours and subsequently, RNA was extracted using the RNeasy kit (Qiagen) following manufacturer's instructions.
RNA was hybridized to the Human Gene 1.0 ST array (Affymetrix). Microarray data were analyzed using the web-based utility Expression Profiler (http://www.ebi.ac.uk/expressionprofiler/). Data normalization was achieved by performing logarithmic transformation of all intensities followed by gene mean-centering. Multiple array probes were collapsed by averaging the intensities. Principal component analysis (PCA) was conducted on all genes to assign the general variability in the data to a reduced set of variables. Gene expression differences were assessed by means of Student's t test, and genes with a p<0.01 were considered differentially expressed. Selected genes were subjected to K-means clustering, using Euclidean distance as correlation measurement, and gene ontology (GO) analysis was performed using the Database for Annotation, Visualization and Integrated Discovery (DAVID) tool. Hierarchical clustering of selected genes was performed using Euclidean distance measurements as similarity comparison.

## O=C(O)CC1CC(c2ccccc2)=NO1 (stereo not shown) [VGX-1027, 3-phenyl-4,5-dihydro-5-isoxazoleacetic acid]
[1]
  half-life: > 1.5 h
[2]; CD3/CD28 stimulation
  proliferation: affected neither
[2]; ConA stimulation
  INF-γ production: affected neither
  proliferation: affected neither
PBMCs; K-means clustering
  genes in cluster strongly downregulated upon treatment: 525
PBMCs; LPS 5 μg/ml + 10 uM, 48 hours
  genes modulated relative to LPS: 895
PBMCs; gene 7912155, most down-regulated genes
  mean/difference of means: 0.111
PBMCs; gene 7923965, most down-regulated genes
  mean/difference of means: 0.439
PBMCs; gene 7945084, most down-regulated genes
  mean/difference of means: 0.165
PBMCs; gene 7997245, most up-regulated genes
  mean/difference of means: −0.0599
PBMCs; gene 8007069, most down-regulated genes
  mean/difference of means: 0.074
PBMCs; gene 8017100, most down-regulated genes
  mean/difference of means: 0.108
PBMCs; gene 8028281, most down-regulated genes
  mean/difference of means: 0.0791
PBMCs; gene 8043441, most up-regulated genes
  mean/difference of means: −0.406
PBMCs; gene 8077169, most down-regulated genes
  mean/difference of means: 0.153
PBMCs; gene 8094946, most down-regulated genes
  mean/difference of means: 0.07
PBMCs; gene 8102775, most down-regulated genes
  mean/difference of means: 0.101
PBMCs; gene 8104068, most down-regulated genes
  mean/difference of means: 0.118
PBMCs; gene 8134024, most down-regulated genes
  mean/difference of means: 0.0796
PBMCs; gene 8135943, most down-regulated genes
  mean/difference of means: 0.406
PBMCs; gene 8136446, most up-regulated genes
  mean/difference of means: −0.146
PBMCs; gene 8140035, most down-regulated genes
  mean/difference of means: 0.388
PBMCs; gene 8150101, most up-regulated genes
  mean/difference of means: −0.237
PBMCs; gene 8153835, most down-regulated genes
  mean/difference of means: 0.0829
PBMCs; gene 8160555, most down-regulated genes
  mean/difference of means: 0.171
PBMCs; gene ADAM19, most up-regulated genes
  mean/difference of means: −0.176
PBMCs; gene AIM2, most up-regulated genes
  mean/difference of means: −0.221
PBMCs; gene ALKBH5, most down-regulated genes
  mean/difference of means: 0.0698
PBMCs; gene APOBEC3G, most up-regulated genes
  mean/difference of means: −0.239
PBMCs; gene ATXN10, most up-regulated genes
  mean/difference of means: −0.131
PBMCs; gene BLNK, most up-regulated genes
  mean/difference of means: −0.398
PBMCs; gene BOLA3, most up-regulated genes
  mean/difference of means: −0.118
PBMCs; gene C1orf2, most down-regulated genes
  mean/difference of means: 0.106
PBMCs; gene C11orf53, most down-regulated genes
  mean/difference of means: 0.184
PBMCs; gene C20orf173, most down-regulated genes
  mean/difference of means: 0.14
PBMCs; gene CABYR, most down-regulated genes
  mean/difference of means: 0.135
PBMCs; gene CCKBR, most down-regulated genes
  mean/difference of means: 0.0588
PBMCs; gene CCL8, most up-regulated genes
  mean/difference of means: −1.08
PBMCs; gene CD22, most up-regulated genes
  mean/difference of means: −0.453
PBMCs; gene CD38, most up-regulated genes
  mean/difference of means: −0.468
PBMCs; gene CHML, most up-regulated genes
  mean/difference of means: −0.24
PBMCs; gene CIZ1, most down-regulated genes
  mean/difference of means: 0.0416
PBMCs; gene CLIC5, most up-regulated genes
  mean/difference of means: −0.175
PBMCs; gene CLU, most up-regulated genes
  mean/difference of means: −0.218
PBMCs; gene CPA3, most up-regulated genes
  mean/difference of means: −0.669
PBMCs; gene CYTH1, most down-regulated genes
  mean/difference of means: 0.0452
PBMCs; gene DNAH1, most up-regulated genes
  mean/difference of means: −0.134
PBMCs; gene EDN2, most down-regulated genes
  mean/difference of means: 0.0391
PBMCs; gene EGR4, most down-regulated genes
  mean/difference of means: 0.129
PBMCs; gene EOMES, most up-regulated genes
  mean/difference of means: −0.0887
PBMCs; gene ETNK2, most down-regulated genes
  mean/difference of means: 0.278
PBMCs; gene FAM108C1, most down-regulated genes
  mean/difference of means: 0.0544
PBMCs; gene FAS, most up-regulated genes
  mean/difference of means: −0.12
PBMCs; gene FCRL1, most up-regulated genes
  mean/difference of means: −0.301
PBMCs; gene FNBP1L, most down-regulated genes
  mean/difference of means: 0.203
PBMCs; gene FUK, most down-regulated genes
  mean/difference of means: 0.0866
PBMCs; gene GATAD1, most down-regulated genes
  mean/difference of means: 0.0258
PBMCs; gene GEN1, most up-regulated genes
  mean/difference of means: −0.368
PBMCs; gene GGTLC2, most down-regulated genes
  mean/difference of means: 0.179
PBMCs; gene HAGH, most down-regulated genes
  mean/difference of means: 0.0712
PBMCs; gene HISPPD2A, most down-regulated genes
  mean/difference of means: 0.0217
PBMCs; gene HSPA12B, most down-regulated genes
  mean/difference of means: 0.0281
PBMCs; gene KARS, most up-regulated genes
  mean/difference of means: −0.126
PBMCs; gene KCTD10, most up-regulated genes
  mean/difference of means: −0.0613
PBMCs; gene KLF3, most down-regulated genes
  mean/difference of means: 0.115
PBMCs; gene KLF10, most up-regulated genes
  mean/difference of means: −0.11
PBMCs; gene KLHDC4, most up-regulated genes
  mean/difference of means: −0.0727
PBMCs; gene LARS2, most up-regulated genes
  mean/difference of means: −0.176
PBMCs; gene LCP2, most up-regulated genes
  mean/difference of means: −0.0536
PBMCs; gene LRRC8D, most down-regulated genes
  mean/difference of means: 0.139
PBMCs; gene LYRM4, most up-regulated genes
  mean/difference of means: −0.294
PBMCs; gene MAGOH, most up-regulated genes
  mean/difference of means: −0.1
PBMCs; gene MOV10L1, most down-regulated genes
  mean/difference of means: 0.0753
PBMCs; gene MRPL15, most up-regulated genes
  mean/difference of means: −0.147
PBMCs; gene MRPS35, most up-regulated genes
  mean/difference of means: −0.164
PBMCs; gene NDUFA4, most up-regulated genes
  mean/difference of means: −0.0638
PBMCs; gene NLN, most up-regulated genes
  mean/difference of means: −0.217
PBMCs; gene OAS3, most up-regulated genes
  mean/difference of means: −0.134
PBMCs; gene OFCC1, most down-regulated genes
  mean/difference of means: 0.0379
PBMCs; gene PAH, most down-regulated genes
  mean/difference of means: 0.0906
PBMCs; gene PAK1IP1, most up-regulated genes
  mean/difference of means: −0.271
PBMCs; gene PGDS, most up-regulated genes
  mean/difference of means: −0.708
PBMCs; gene RGS1, most up-regulated genes
  mean/difference of means: −0.294
PBMCs; gene RPE, most up-regulated genes
  mean/difference of means: −0.116
PBMCs; gene SERPINI1, most down-regulated genes
  mean/difference of means: 0.187
PBMCs; gene SH3PXD2A, most down-regulated genes
  mean/difference of means: 0.0515
PBMCs; gene SLC38A2, most down-regulated genes
  mean/difference of means: 0.0979
PBMCs; gene SNORA24, most up-regulated genes
  mean/difference of means: −0.212
PBMCs; gene SNRNP70, most down-regulated genes
  mean/difference of means: 0.0617
PBMCs; gene SNX6, most up-regulated genes
  mean/difference of means: −0.0607
PBMCs; gene SPAG7, most up-regulated genes
  mean/difference of means: −0.149
PBMCs; gene SRFBP1, most up-regulated genes
  mean/difference of means: −0.124
PBMCs; gene TCL1A, most up-regulated genes
  mean/difference of means: −0.442
PBMCs; gene TNFRSF17, most up-regulated genes
  mean/difference of means: −0.295
PBMCs; gene TRABD, most down-regulated genes
  mean/difference of means: 0.0439
PBMCs; gene TSN, most up-regulated genes
  mean/difference of means: −0.105
PBMCs; gene TUSC3, most down-regulated genes
  mean/difference of means: 0.0955
PBMCs; gene TXNRD1, most down-regulated genes
  mean/difference of means: 0.117
PBMCs; gene UAP1L1, most down-regulated genes
  mean/difference of means: 0.0398
PBMCs; gene VIPR1, most down-regulated genes
  mean/difference of means: 0.123
PBMCs; gene WARS2, most up-regulated genes
  mean/difference of means: −0.246
PBMCs; gene WDR70, most up-regulated genes
  mean/difference of means: −0.0908
PBMCs; gene YPEL2, most down-regulated genes
  mean/difference of means: 0.183
PBMCs; gene ZNF596, most up-regulated genes
  mean/difference of means: −0.432
PBMCs; gene ZNF746, most down-regulated genes
  mean/difference of means: 0.0386
PBMCs; gene hCG_2024410, most up-regulated genes
  mean/difference of means: −0.102
